Assay results reported in patent US7906522B2, “2-aminoquinazoline derivatives” (Kyowa Hakko Kirin Co., Ltd, priority 2005, dated 2011).

Target: T1, Activated human p38α (Homo sapiens, UniProt Q16539)
T1 construct: purchased Upstate Biotechnology Inc. 14-251
Assay: p38MAP kinase inhibition test
Type: biochemical
Conditions: at a concentration of 1 μmol/L; substrate myelin basic protein, ATP 20 μmol/L, [γ-32P]ATP; read-out: enzyme inhibitory activity
Method in brief: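 Radiometric kinase assay with myelin basic protein (20 μg/assay) as substrate, 20 μmol/L ATP plus [γ-32P]ATP, MOPS pH 7.2 with MgCl2 18.75 mmol/L. Reaction run 15 min at 30° C., stopped with phosphoric acid; 32P-MBP captured on phosphocellulose and counted by scintillation.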

T1 sequence (Q16539 whole entry): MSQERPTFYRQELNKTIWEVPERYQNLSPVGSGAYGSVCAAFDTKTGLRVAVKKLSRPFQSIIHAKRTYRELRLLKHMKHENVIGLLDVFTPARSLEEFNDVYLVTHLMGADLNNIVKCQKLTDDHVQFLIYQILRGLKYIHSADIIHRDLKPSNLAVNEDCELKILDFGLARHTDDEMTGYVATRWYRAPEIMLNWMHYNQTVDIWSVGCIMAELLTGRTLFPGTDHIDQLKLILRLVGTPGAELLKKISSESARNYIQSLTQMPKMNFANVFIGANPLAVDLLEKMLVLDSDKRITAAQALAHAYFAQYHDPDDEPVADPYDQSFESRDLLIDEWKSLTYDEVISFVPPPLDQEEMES

SMILES	inhibition at 1 µM [%]
COc1cc2nc(NC(C)C)ncc2cc1-c1cc(NC(=O)c2ccc[nH]2)ccc1O [Compound 252, 6-{2-Hydroxy-5-[(1H-pyrrol-2-yl)carbonylamino]phenyl}-2-isopropylamino-7-methoxyquinazoline]	≥ 50
CC(C)Nc1ncc2cc(-c3cc(NC(=O)c4ccc[nH]4)ccc3CO)ccc2n1 [Compound 255, 6-{2-Hydroxymethyl-5-[(1H-pyrrol-2-yl)carbonylamino]phenyl}-2-(isopropylamino)quinazoline]	≥ 50
Cc1ccc(NC(=O)c2ccnc(N3CCOCC3)c2)cc1-c1ccc2nc(NC(C)C)ncc2c1 [Compound 256, 2-Isopropylamino-6-{2-methyl-5-[(2-morpholinopyridin-4-yl)carbonylamino]phenyl}quinazoline]	≥ 50
CC(C)Nc1ncc2cc(-c3cccc(NC(=O)c4ccnc(N5CCOCC5)c4)c3)ccc2n1 [Compound 257, 2-Isopropylamino-6-{3-[(2-morpholinopyridin-4-yl)carbonylamino]phenyl}quinazoline]	≥ 50
CC(C)Nc1ncc2cc(-c3cccc(NC(=O)c4ccc[nH]4)c3)ccc2n1 [Compound 258, 2-Isopropylamino-6-{3-[(1H-pyrrol-2-yl)carbonylamino]phenyl}quinazoline]	≥ 50
CC(C)Nc1ncc2cc(-c3cc(NC(=O)c4ccnc(N5CCOCC5)c4)ccc3O)ccc2n1 [Compound 266, 6-{2-Hydroxy-5-[(2-morpholinopyridin-4-yl)carbonylamino]phenyl]-2-(isopropylamino)quinazoline]	≥ 50
CC(C)Nc1ncc2cc(-c3cc(NC(=O)c4ccc[nH]4)ccc3O)ccc2n1 [Compound 267, 6-{2-Hydroxy-5-[(1H-pyrrol-2-yl)carbonylamino]phenyl}-2-(isopropylamino)quinazoline]	≥ 50

Second part, the molecule after the results:

inhibition at 1 µM [%]	SMILES
≥ 50	Cc1ccc(NC(=O)c2ccc[nH]2)cc1-c1ccc2nc(NC(C)C)ncc2c1 [Compound 253, 2-Isopropylamino-6-{2-methyl-5-[(1H-pyrrol-2-yl)carbonylamino]phenyl}quinazoline]
≥ 50	CC(=O)Nc1ccc(C)c(-c2ccc3nc(NC(C)C)ncc3c2)c1 [Compound 254, 6-(5-Acetylamino-2-methylphenyl)-2-(isopropylamino)quinazoline]
≥ 50	Cc1ccc(NC(=O)c2ccncc2)cc1-c1ccc2nc(NC(C)C)ncc2c1 [Compound 259, 2-Isopropylamino-6-{2-methyl-5-[(4-pyridyl)carbonylamino]phenyl}quinazoline]
≥ 50	Cc1ccc(NC(=O)c2cnccn2)cc1-c1ccc2nc(NC(C)C)ncc2c1 [Compound 261, 2-Isopropylamino-6-[2-methyl-5-(pyrazinylcarbonylamino)phenyl]quinazoline]
≥ 50	Cc1ccc(NC(=O)c2ccccn2)cc1-c1ccc2nc(NC(C)C)ncc2c1 [Compound 262, 2-Isopropylamino-6-{2-methyl-5-(2-pyridylcarbonylamino)phenyl}quinazoline]
≥ 50	Cc1ccc(NC(=O)c2ccc[n+]([O-])c2)cc1-c1ccc2nc(NC(C)C)ncc2c1 [Compound 263, 2-Isopropylamino-6-{2-methyl-5-[(pyridine-1-oxide-3-yl)carbonylamino]phenyl}quinazoline]
≥ 50	Cc1ccc(NC(=O)C2CC2)cc1-c1ccc2nc(NC(C)C)ncc2c1 [Compound 264, 6-(5-Cyclopropylcarbonylamino-2-methylphenyl)-2-(isopropylamino)quinazoline]
≥ 50	Cc1ccc(NC(=O)C2CCC2)cc1-c1ccc2nc(NC(C)C)ncc2c1 [Compound 265, 6-(5-Cyclobutylcarbonylamino-2-methylphenyl)-2-(isopropylamino)quinazoline]
≥ 50	Cc1ccc(C(=O)NC2CC2)cc1-c1ccc2nc(NC(C)C)ncc2c1 [Compound 268, 6-(5-Cyclopropylcarbamoyl-2-methylphenyl)-2-(isopropylamino)quinazoline]
